According to US12459930B2, “Compounds for the inhibition of unregulated cell growth” (GODAVARI BIOREFINERIES LIMITED, priority 2018, dated 2025):
pIC50: −log10 of the molar value. Counter-ions that a name gives are not always drawn. Like-named read-outs stand apart in the source and are kept apart here.

What was measured:
[1] = test system: MDAMB231 breast cancer cell line; test: Soft agar colony-formation assay, MDAMB231; assay type: cell-based; conditions: 1 week, Alamar Blue, read-out: IC50 in micromolar, MDAMB231 (Soft Agar Assay)
Protocol: (§1) The Soft Agar Colony-formation Assay is an anchorage-independent growth assay in soft agar, which is one of the most stringent assays for detecting malignant transformation of cells. For this assay, malignant cells are cultured with appropriate controls in soft agar medium for 1-2 weeks. Following this incubation period, formed colonies can either be analyzed morphologically using cell stain and quantifying the number of colonies formed.
(§2) Briefly, for Soft Agar Assay a mixture of 50 ul of 2× medium (taken appropriately as per cell line) and 50 ul of 1.2% Bacto Agar were plated on to each well of 96 well micro titer assay plate. 10 ul of cells (of specific plating efficiency pre standardized for respective cell line) were mixed with 20 ul of 2× medium and 30 ul of 0.8% of Bacto Agar and 1.6 ul of drug (of appropriate concentration) in a vial and transferred to the solidified pre layers of the assay plates. The cells were then allowed to grow and form colonies at 37° C. and 5% C02 for 1 week. An intermittent feeding with 50 ul of appropriate 2× medium was performed after 3 days of experimental set up. 16 ul of Alamar Blue (1.5 mg/ml) was then added to all the wells to quantify the developed colonies. The plates were incubated for 24 hrs at 37° C. Absorbance was then measured at 630 nm. XY graph of log Percent viability was then plotted against log drug concentration.
(§3) Following plating efficiencies were standardized for Soft Agar Assay: […]

[2] = test system: DU145 prostate cancer cell line; test: In vitro antiproliferative assay (MTT assay), DU145; assay type: cell-based; conditions: 48 hrs drug incubation, read-out: IC50 in micromolar, DU145 (MTT assay)
Protocol: (§4) MTT assay is a simple and sensitive assay where, metabolic reducing activity of the cells is measured. The increase of this activity in time is taken as a parameter of cell growth. If treatment with a drug impairs this increase, the action is a consequence of growth inhibition, cell killing or both. […] All cell lines were cultured in a 37° C. incubator with a 5% CO2 environment. Compounds were dissolved in DMSO with a concentration of 0.1M (stock solution). Cells were seeded into 96-well plates at suitable plating efficiency.
(§5) Following plating efficiencies were standardized for MTT assay:
(§6) In the MTT procedure, the cells were plated in 96 well plates as per predetermined plating efficiency (Table1). The plates were then incubated for 24 hrs in 5% CO2 atmosphere at 37° C. Appropriate concentrations of the drugs were then added to the plate and further incubation was carried out for 48 hrs (in 5% CO2 atmosphere at 37° C.). The assay plate was then centrifuged twice at 3000 rpm for 3 mins and supernatant was then discarded. 100 ul of MTT solution (0.5 mg/ml) was then added to each well of the plate and it was further incubated for 4 hrs (in 5% CO2 atmosphere at 37° C.) Following 4 hr incubation, the plate was then centrifuged twice, and supernatant was aspirated off very carefully. 200 ul of DMSO was then added to each well to solubilize. MTT crystals and mixed well by shaking the plate. XY graph of log percent viability was then plotted against log drug concentration.

[3] = test system: MDAMB231 breast cancer cell line; test: In vitro antiproliferative assay (MTT assay), MDAMB231; assay type: cell-based; conditions: 48 hrs drug incubation, read-out: IC50 in micromolar, MDAMB231 (MTT assay)
Protocol: as §4, §5, §6

[4] = test system: PC3 prostate cancer cell line; test: Soft agar colony-formation assay, PC3; assay type: cell-based; conditions: 1 week, Alamar Blue, read-out: IC50 in micromolar, PC3 (Soft Agar Assay)
Protocol: as §1, §2, §3

[5] = test system: PC3 spheres (cancer stem cells); test: In vitro sphere-forming assay (cancer stem cells), PC3 in Prostosphere media; conditions: for 3D sphere count of PC3 in Prostosphere media: 2000 cells/well, n = 6 ± S.D; for viability at 0.025 µM: read-out: % Viability of spheres (PC3), 0.025 uM; for viability at 0.25 µM: read-out: % Viability of spheres (PC3), 0.25 uM; for viability at 2.5 µM: read-out: % Viability of spheres (PC3), 2.5 uM; for viability at 25 µM: read-out: % Viability of spheres (PC3), 25 uM; for viability at 0.0025 µM: read-out: % Viability of spheres (PC3), 0.0025 uM
[6] = test system: MDAMB231 spheres (cancer stem cells); test: In vitro sphere-forming assay (cancer stem cells), MDAMB231 in Mammosphere media; conditions: for 3D sphere count of MDAMB231 in Mammosphere media: 2000 cells/well, n = 6 ± S.D; for viability at 0.0025 µM / viability at 0.025 µM / viability at 0.25 µM / viability at 2.5 µM / viability at 25 µM: Homo sapiens, MDA-MB-231, read-out: % Viability of spheres (MDAMB231)
[7] = test system: PC3 prostate cancer cell line; test: In vitro antiproliferative assay (MTT assay), PC3; assay type: cell-based; conditions: 48 h, 48 hrs drug incubation, read-out: IC50 in micromolar, PC3 (MTT assay)
Protocol: as §4, §5, §6

[8] = Homo sapiens, MDA-MB-231, 168 h

Row | SMILES | pIC50 ([2]; Homo sapiens, DU-145, 48 h) | pIC50 ([3]; Homo sapiens, MDA-MB-231, 48 h) | pIC50 ([4]; 168 h) | 3D sphere count of PC3 in Prostosphere media ([5]; 0.025 uM) | 3D sphere count of PC3 in Prostosphere media ([5]; 0.25 uM) | 3D sphere count of PC3 in Prostosphere media ([5]; 2.5 uM) | 3D sphere count of PC3 in Prostosphere media ([5]; 25 uM) | viability at 0.025 µM ([5]; GCD = 100% viability) | viability at 0.25 µM ([5]; GCD = 100% viability) | viability at 2.5 µM ([5]; GCD = 100% viability) | viability at 25 µM ([5]; GCD = 100% viability) | 3D sphere count of MDAMB231 in Mammosphere media ([6]; 0.0025 uM) | 3D sphere count of MDAMB231 in Mammosphere media ([6]; 0.025 uM) | 3D sphere count of MDAMB231 in Mammosphere media ([6]; 0.25 uM) | 3D sphere count of MDAMB231 in Mammosphere media ([6]; 2.5 uM) | 3D sphere count of MDAMB231 in Mammosphere media ([6]; 25 uM) | viability at 0.0025 µM [6] | viability at 0.025 µM [6] | viability at 0.25 µM [6] | pIC50 [7] | further results
1 | CCOC(=O)N1CCN(CCCCCCOc2c3c(c(-c4ccc5c(c4)OCO5)c4cc(OC)c(OC)cc24)C(=O)OC3)CC1 [Formula IX, ethyl 4-(6-(9-(benzo[d][1,3]dioxol-5-yl)-1,3-dihydro-6,7-dimethoxy-1-oxonaphtho[2,3-c]furan-4-yloxy)hexyl)piperazine-1-carboxylate Hydrochloride] | 4.97 | 4.96 | 5.48 |  |  |  |  |  |  |  |  |  |  |  |  |  |  |  |  |  | pIC50 ([1]; hydrochloride): 6.49
2 | COc1cc2c(OCCCCN3CCOCC3)c3c(c(-c4ccc5c(c4)OCO5)c2cc1OC)C(=O)OC3 [Formula VI, 4-(4-morpholinobutoxy)-9-(benzo[d][1,3]dioxol-5-yl)-6,7-dimethoxynaphtho[2,3-c]furan-1(3H)-one] |  |  |  | 49(±2) | 41(±2) | 37(±2) | 27(±2) | 57% | 48% | 43% | 31% |  |  |  |  |  |  |  |  |  | pIC50 [1]: 5.57; pIC50 [2]: 5.39; pIC50 [3]: 4.96; 3D sphere count of PC3 in Prostosphere media ([5]; 250 uM): 0(±0); viability at 250 µM ([5]; read-out: % Viability of spheres (PC3), 250 uM, GCD = 100% viability): 0%; pIC50 [4]: 5.58
3 | O=C(CCCOc1ccc(-c2ccc3c(c2)OCO3)c2ccccc12)N1CCOCC1 [Formula XV, 4-(1-(benzo[d][1,3]dioxol-5-yl)naphthalen-4-yloxy)-1-morpholinobutan-1-one] | 5.60 | 5.31 | 5.51 |  |  |  |  |  |  |  |  | 53(±2) | 51(±5) | 40(±6) | 31(±3) | 16(±4) | 64% | 62% | 49% | 5.11 | pIC50 [1, 8]: 5.27; viability at 2.5 µM [6]: 38%; viability at 25 µM [6]: 19%
4 | c1cnc2c(OCCCCCCN3CCOCC3)ccc(-c3ccc4c(c3)OCO4)c2c1 [Formula XVI, 8-(6-morpholinohexyloxy)-5-(benzo[d][1,3]dioxol-5-yl)quinoline] | 5.45 | 5.42 |  | 53(±4) | 42(±4) | 34(±3) | 25(±4) | 63% | 50% | 40% | 30% | 61(±3) | 51(±3) | 42(±3) | 37(±3) | 22(±4) | 71% | 59% | 49% | 5.26 | viability at 2.5 µM [6]: 43%; viability at 25 µM [6]: 25%; 3D sphere count of PC3 in Prostosphere media ([5]; 0.0025 uM): 72(±6); viability at 0.0025 µM ([5]; GCD = 100% viability): 86%
5 | c1cnc2c(OCCCCNC3CCCCC3)ccc(-c3ccc4c(c3)OCO4)c2c1 [Formula XVII, N-(4-(5-(benzo[d][1,3]dioxol-5-yl)quinolin-8-yloxy)butyl)cyclohexanamine] | 5.70 | 5.67 |  |  |  |  |  |  |  |  |  |  |  |  |  |  |  |  |  | 5.55 | 
6 | c1cc2c(cc1-c1ccc(OCCN3CCOCC3)c3c1CCCC3)OCO2 [Formula XXI, 4-(2-(5-(benzo[d][1,3]dioxol-5-yl)-1,2,3,4-tetrahydronaphthalen-8-yloxy)ethyl) morpholine] | 5.37 | 5.38 | 5.56 | 54(±2) | 50(±2) | 45(±3) | 36(±2) | 68% | 63% | 57% | 45% |  |  |  |  |  |  |  |  | 5.41 | pIC50 [1, 8]: 5.36; 3D sphere count of PC3 in Prostosphere media ([5]; 0.0025 uM): 62(±4); viability at 0.0025 µM ([5]; GCD = 100% viability): 78%
7 | C=CCNCCCCCCOc1ccc(-c2ccc3c(c2)OCO3)c2c1CCCC2 [Formula XXII, 6-(5-(benzo[d][1,3]dioxol-5-yl)-1,2,3,4-tetrahydronaphthalen-8-yloxy)-N-allylhexan-1-amine] | 5.83 | 5.87 |  | 44(±4) | 36(±3) | 25(±3) | 14(±3) | 52% | 43% | 30% | 17% | 47(±3) | 34(±3) | 24(±4) | 9(±2) | 0(±0) | 55% | 39% | 28% | 5.61 | viability at 2.5 µM [6]: 10%; viability at 25 µM [6]: 0%; 3D sphere count of PC3 in Prostosphere media ([5]; 0.0025 uM): 55(±3); viability at 0.0025 µM ([5]; GCD = 100% viability): 66%
